Among the test systems are A498; A549; HCT-15; HOP-62; HT-29; IGROV-1; Malme-3M; NCI-H23; NCI-H522; OVCAR-8; RXF 393; SF-268; SF-539; SNB-19; SNB-75; U-251; EKVX.
Assay in all cases: DTP human tumour cell line panel, 48 h

Structures are written as SMILES.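 Compound exposure: 48 hours, 5 concentrations, 96-well plates. GI50: concentration for 50% inhibition of growth.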 Active and inactive are the calls of the source. Cut-off read from the data, not from the text of the source: active = GI50 up to about 1.1 µM and inactive = higher. Where only a bound is given, the exact number is not on record here.

By GI50 is commonly meant the concentration giving 50% growth inhibition. As for `COc1cc(C2Oc3cc(-c4oc5cc(O)cc(O)c5c(=O)c4O)ccc3OC2CO)ccc1O` (configuration not stated) [DEHYDROSILYLBIN], the GI50 is 9.27 µM (inactive) with A498; 9.14 µM (inactive) in the test with A549; 9.31 µM in the test on HCT-15; 11.2 µM (inactive) in the test with HOP-62; 25.9 µM (inactive) with HT-29; 10.9 µM (inactive) in the test on IGROV-1. Besides, the GI50 was 22.8 µM (inactive) in the test with Malme-3M; 4.3 µM (inactive) with NCI-H23; 3.03 µM (inactive) in the test on NCI-H522; 30.1 µM (inactive) in the test on OVCAR-8; 2.31 µM (inactive) with RXF 393; 7.46 µM (inactive) with SF-268. For the same compound, the GI50 was 4.24 µM (inactive) in the test on SF-539, 7.43 µM (inactive) in the test on SNB-19, 5 µM (inactive) with SNB-75 and 6.68 µM (inactive) with U-251.
Regarding `COc1cc2cc3c4c(cc(OC)c(OC)c4c2cc1OC)CCN3C(=O)N(C)C`, the GI50 was 97.3 µM (inactive) in the test with A498; > 100 µM (inactive) in the test with A549; > 100 µM (inactive) with EKVX; > 100 µM in the test on HCT-15; 72.1 µM (inactive) with HOP-62; 83.4 µM (inactive) in the test with HT-29. The GI50 in the test on IGROV-1 is > 100 µM (inactive); with Malme-3M it was 59.3 µM (inactive); in the test on NCI-H23 it was > 10 µM (inactive); in the test on NCI-H522, 29.9 µM (inactive); in the test with OVCAR-8, > 100 µM (inactive); with RXF 393, > 100 µM (inactive). In addition, the GI50 was > 100 µM (inactive) in the test with SF-268; 34.5 µM (inactive) in the test with SF-539; > 100 µM (inactive) in the test on SNB-19; 19.5 µM (inactive) in the test with SNB-75; > 100 µM (inactive) in the test on U-251.
Regarding `CCOC(=O)c1c2cccccc2n2c(=O)cc(C)nc12`, the GI50 is > 100 µM (inactive) in the test on A498; > 100 µM (inactive) in the test with A549; > 100 µM (inactive) in the test with EKVX; > 100 µM with HCT-15; > 100 µM (inactive) in the test with HOP-62; > 100 µM (inactive) with HT-29. In addition, the GI50 was > 100 µM (inactive) in the test with IGROV-1; > 100 µM (inactive) in the test on NCI-H23; > 100 µM (inactive) in the test with NCI-H522; > 100 µM (inactive) in the test with OVCAR-8; > 100 µM (inactive) in the test on RXF 393; 69.8 µM (inactive) in the test with SF-268. In addition, the GI50 in the test on SF-539, with SNB-19 and in the test with U-251 was > 100 µM (inactive) each time.
Regarding `Cc1ccc(NC(=O)c2nc(S)nc(N)c2-c2ccccc2C)cc1C`, the GI50 with A498 is > 100 µM (inactive); in the test with A549 it was > 100 µM (inactive); in the test with EKVX, > 100 µM (inactive); in the test on HCT-15, > 100 µM; in the test with HT-29, > 100 µM (inactive); with IGROV-1, > 100 µM (inactive). The GI50 in the test on Malme-3M, with NCI-H23, in the test with NCI-H522, in the test on OVCAR-8, in the test with RXF 393 and in the test with SF-268 was > 100 µM (inactive) throughout. Moreover, the GI50 in the test with SF-539, in the test on SNB-19, in the test on SNB-75 and with U-251 was > 100 µM (inactive) each time.
As for `CC(O)(c1ccc(OCCC[N+](C)(C)C)cc1)C(C)(O)c1ccc(OCCC[N+](C)(C)C)cc1` (configuration not stated), the GI50 with A498 is > 100 µM (inactive); with A549, > 100 µM (inactive); in the test on EKVX it was > 100 µM (inactive); with HCT-15, > 100 µM; in the test on HOP-62, > 100 µM (inactive); with HT-29, > 100 µM (inactive). The GI50 with IGROV-1, in the test with Malme-3M, in the test on NCI-H23, in the test on NCI-H522, in the test on OVCAR-8 and in the test on RXF 393 was > 100 µM (inactive) throughout. Moreover, the GI50 in the test with SF-268, with SF-539, in the test on SNB-19, with SNB-75 and in the test with U-251 was > 100 µM (inactive) each time.
As for `O=C(/C=C/c1ccccc1F)c1ccc(Cl)c(Cl)c1`, the GI50 in the test with A498 is > 39.1 µM (inactive); in the test with A549 it was 64 µM (inactive); with EKVX, > 100 µM (inactive); with HCT-15, 37.1 µM; with HOP-62 it was > 100 µM (inactive); in the test on HT-29, 27.3 µM (inactive). Besides, the GI50 with IGROV-1 is 34.3 µM (inactive); in the test on Malme-3M, > 92.9 µM (inactive); in the test on NCI-H23, 14.2 µM (inactive); in the test with NCI-H522, 23.2 µM (inactive); in the test with OVCAR-8, 33 µM (inactive); in the test on RXF 393, 21.9 µM (inactive). The GI50 is 38.3 µM (inactive) in the test with SF-268; 30 µM (inactive) in the test with SF-539; > 58.6 µM (inactive) in the test on SNB-19; 39.3 µM (inactive) with SNB-75; > 10 µM (inactive) with U-251.
`COc1cc(C2c3cc4c(cc3[C@@H](N(C)C)[C@H]3COC(=O)C23)OCO4)cc(OC)c1O` (some centres not stated): the GI50 with A498 was 23.3 µM (inactive); with A549, 45.9 µM (inactive); in the test on EKVX it was 64.4 µM (inactive); in the test with HCT-15, 31.1 µM; with HOP-62 it was 50.4 µM (inactive); in the test with HT-29, 34.4 µM (inactive). Moreover, the GI50 in the test with IGROV-1 was 72.1 µM (inactive); in the test on Malme-3M, 37.7 µM (inactive); in the test with NCI-H23, 37.7 µM (inactive); with NCI-H522, 4.4 µM (inactive); in the test with OVCAR-8, 25.5 µM (inactive); in the test with RXF 393, 86.7 µM (inactive). For the same compound, the GI50 with SF-268 is 46.7 µM (inactive); in the test with SF-539, 21 µM (inactive); with SNB-75, 93.3 µM (inactive); in the test on U-251, 34 µM (inactive).
On to `CC1CCC23COC(=O)C2C(O)CCC3C1(C)CC(O)c1ccoc1` (configuration not stated), for which the GI50 with A498 was > 100 µM (inactive); in the test with A549, > 100 µM (inactive); in the test on EKVX, > 100 µM (inactive); in the test on HCT-15, > 100 µM; in the test on HOP-62, > 100 µM (inactive); in the test on HT-29, > 100 µM (inactive). Also, the GI50 with IGROV-1, with Malme-3M, in the test on NCI-H23, with NCI-H522, with OVCAR-8 and with RXF 393 was > 100 µM (inactive) throughout. The GI50 was > 100 µM (inactive) in the test on SF-268; > 100 µM (inactive) in the test on SF-539; > 100 µM (inactive) in the test with SNB-19; 41.3 µM (inactive) in the test with SNB-75; > 100 µM (inactive) in the test with U-251.
`O=C(CC(=O)c1ccccc1)C(=O)Nc1ccc(Cl)cc1`: the GI50 in the test with A498 was > 100 µM (inactive); in the test with A549 it was > 94.6 µM (inactive); in the test on EKVX, > 100 µM (inactive); in the test with HCT-15, > 42.9 µM; with HOP-62, > 100 µM (inactive); in the test with HT-29 it was > 42.8 µM (inactive). In addition, the GI50 in the test with IGROV-1 is > 100 µM (inactive); with Malme-3M it was > 100 µM (inactive); in the test with NCI-H23, > 100 µM (inactive); in the test with NCI-H522, 97.9 µM (inactive); in the test on OVCAR-8, > 100 µM (inactive); in the test with RXF 393 it was > 100 µM (inactive). Also, the GI50 with SF-268 was > 100 µM (inactive); in the test with SF-539 it was > 100 µM (inactive); with SNB-19 it was > 100 µM (inactive); in the test on SNB-75, > 64 µM (inactive); in the test with U-251 it was > 100 µM (inactive).
For the compound `COC(=O)C1=C(CO)C2C=CC1C2` (configuration not stated), the GI50 is > 100 µM (inactive) in the test with A498; > 100 µM (inactive) in the test with A549; > 100 µM (inactive) in the test with EKVX; > 100 µM in the test on HCT-15; > 100 µM (inactive) in the test with HOP-62; > 100 µM (inactive) in the test with HT-29. Also, the GI50 in the test with IGROV-1, in the test on Malme-3M, in the test with NCI-H23, in the test with NCI-H522, with OVCAR-8 and in the test on RXF 393 was > 100 µM (inactive) throughout. The GI50 in the test with SF-268, with SF-539, in the test on SNB-19, with SNB-75 and with U-251 was > 100 µM (inactive) in each case.
For the compound `O=C1C(O)=C(CCCc2ccc(Oc3ccccc3)cc2)C(=O)c2ccccc21`, the GI50 in the test with A498 was 10.3 µM (inactive); in the test with EKVX, 11.6 µM (inactive); with HCT-15, 4.28 µM; with HOP-62 it was 10.7 µM (inactive); in the test with HT-29, 30.9 µM (inactive); in the test on IGROV-1 it was 6.19 µM (inactive). The GI50 with Malme-3M is 12.9 µM (inactive); in the test with NCI-H23 it was 4.58 µM (inactive); in the test on NCI-H522, 6.49 µM (inactive); in the test with OVCAR-8, 7.76 µM (inactive); in the test on RXF 393 it was 14.4 µM (inactive); in the test with SF-268, 7.64 µM (inactive). Besides, the GI50 was 6.46 µM (inactive) in the test with SF-539, 7.46 µM (inactive) in the test on SNB-19, 24.4 µM (inactive) with SNB-75 and 5.64 µM (inactive) with U-251.
Turning to `OCCC1(O)CCC(O)CC1` (configuration not stated), the GI50 in the test on A498 was > 100 µM (inactive); in the test on A549, > 100 µM (inactive); with EKVX, > 100 µM (inactive); in the test on HCT-15, > 100 µM; in the test with HOP-62, > 100 µM (inactive); in the test with HT-29, > 100 µM (inactive). Further, the GI50 in the test on IGROV-1, in the test on Malme-3M, in the test with NCI-H23, with NCI-H522, in the test on OVCAR-8 and with SF-268 was > 100 µM (inactive) throughout. Moreover, the GI50 in the test with SF-539 is > 100 µM (inactive); in the test on SNB-19, > 100 µM (inactive); in the test with SNB-75, 75.7 µM (inactive); in the test on U-251, > 100 µM (inactive).

The values are drawn from ChEMBL document CHEMBL1201862, “PubChem BioAssay data set” (2004).
